Earlier results on one compound are cited in publication PMC6699497 (Drug Design, Development and Therapy, 2019).

The conditions of data set [1]: species not given.
For data set [2] the following is noted: rat.
Where [3] appears, read: previous study compared with present value.

Broadly, the Cmax is the highest concentration seen after dosing. `CNC(=O)c1c(C)oc2cc(Oc3ncnc4cc(OC)c(OC)cc34)ccc12` [Fruquintinib, 6-(6,7-dimethoxyquinazolin-4-yloxy) - N,2-dimethylbenzofuran-3-carboxamide]: in data set [1], the “plasma protein binding fraction” value is listed as 88–95%. Further, in data set [2], the oral bioavailability was 42–53%. For the same compound, in data set [2] (setting [3]), the Cmax is recorded as 326.00 ng/mL and the t1/2 is 1.40 h.
